{"source": "patent US20110039787A1", "about": "“COMPOSITIONS, KITS AND METHODS FOR TREATING BENIGN PROSTATE HYPERPLASIA” (priority 2009, published 2011)", "key": {"testosterone": {"tested_on": "testosterone", "experiment": "Serum testosterone concentration-time profile (LC-MS/MS)", "format": "in vivo, men", "settings": "for Number of patients with testosterone below the castration level 0.5 ng/mL at one or more time-points / Percentage of patients with testosterone below the castration level 0.5 ng/mL at one or more time-points: up to Day 42; for Mean time to second return of testosterone to baseline interval (after the second administration): calculated, not measured values"}, "men with BPH [1]": {"tested_on": "men with BPH", "settings": "in vivo", "description": "The study population was men with BPH with: a prostate volume larger than 30 mL, a maximal uroflow of 12 mL/s (with some exceptions), an IPSS score of at least 13, serum prostatic specific antigen (PSA) below 10 ng/mL, and no evidence of prostate cancer. Altogether, 52 patients with BPH were randomly assigned to four parallel groups of 13 patients each.\nThe patients were randomly allocated to receive either: one injection of 64 mg degarelix on Day 0 (hereinafter termed “64 mg”); one injection of 32 mg degarelix on Day 0 and one on Day 14 (hereinafter termed “32+32 mg”); one injection of 32 mg degarelix on Day 0 (hereinafter termed “32 mg”); or one injection of 16 mg degarelix on Day 0 and one on Day 14 (hereinafter termed “16+16 mg”).\nIn order to evaluate the effects of degarelix on urinary morbidity, sexual function and overall quality of life (QoL) due to urinary condition, patient reported questionnaires (IPSS, IIEF, and IPSS-global QoL) were used. The questionnaires were answered by the patient at the clinic visits, in line with standard procedures.\nThe IIEF questionnaire evaluated sexual dysfunction associated with treatment. […] Question numbers one to ten are scored on a six-point scale from zero ('No sexual activity') to five (Almost always to always'). Question numbers 11-15 are scored on a five-point scale from one (Almost never or never') to five (Almost always to always'). […]"}, "men with BPH [2]": {"tested_on": "men with BPH", "experiment": "Post-void residual volume by transabdominal ultrasound", "format": "in vivo", "settings": "all treatment groups", "method": "For each patient, the following parameters were measured or assessed (using the methods discussed below), at time points of screening day 0 (e.g., −7 days, “baseline”), day 14, day 28, and day 42:\n2) Efficacy Endpoints—the measured Peak Urinary Flow, Post-void Residual Volume, and Prostate Volume.\nThe Post-void Residual Volume (PVR) was evaluated by transabdominal ultrasound. The urine in the patient's bladder was sonicated from two directions perpendicular to one another resulting in three cursor positions set by the urologist. The volume was calculated automatically. The investigations were performed by urologists by methods known in the art."}, "[3]": {"settings": "16+16 mg, after the first administration"}, "[4]": {"settings": "16+16 mg, after the second administration"}, "[5]": {"settings": "32+32 mg, after the first administration"}, "[6]": {"settings": "32+32 mg, after the second administration"}, "[7]": {"settings": "first dose of the 32+32 mg combined with the single dose 32 mg data"}}, "note": "Square brackets hold non-standard residues; d marks the D form. Peptide text beside a SMILES is read from it. * marks the point of attachment. dPhe(4-NHCONH2) = NC(=O)Nc1ccc(C[C@@H](N)C(=O)O)cc1; Dihydroorotyl(S) = O=C1C[C@@H](C(=O)*)NC(=O)N1; dPhe(4-Cl) = N[C@H](Cc1ccc(Cl)cc1)C(=O)O; Phe(4-NH2) = Nc1ccc(C[C@H](N)C(=O)O)cc1; d2Nal = N[C@H](Cc1ccc2ccccc2c1)C(=O)O; Lys(iPr) = CC(C)NCCCC[C@H](N)C(=O)O; d3Pal = N[C@H](Cc1cccnc1)C(=O)O"}
{"molecule": "CC(=O)N[C@H](Cc1ccc2ccccc2c1)C(=O)N[C@H](Cc1ccc(Cl)cc1)C(=O)N[C@H](Cc1cccnc1)C(=O)N[C@@H](CO)C(=O)N[C@@H](Cc1ccc(NC(=O)[C@@H]2CC(=O)NC(=O)N2)cc1)C(=O)N[C@H](Cc1ccc(NC(N)=O)cc1)C(=O)N[C@@H](CC(C)C)C(=O)N[C@@H](CCCCNC(C)C)C(=O)N1CCC[C@H]1C(=O)N[C@H](C)C(N)=O", "note": "[Degarelix, D-Alaninamide, N-acetyl-3-(2-naphthalenyl)-D-alanyl-4-chloro-D-phenylalanyl-3-(3-pyridinyl)-D-alanyl-L-seryl-4-[[[(4S)-hexahydro-2,6-dioxo-4-pyrimidinyl]carbonyl]amino]-L-phenylalanyl-4-[(aminocarbonyl)amino]-D-phenylalanyl-L leucyl-N6-(1-methylethyl)-L-lysyl-L-prolyl] (Ac-[d2Nal][dPhe(4-Cl)][d3Pal]S[Phe(4-NH2)](Dihydroorotyl(S))[dPhe(4-NHCONH2)]L[Lys(iPr)]P[dA]-NH2)", "values": [{"measurement": "Mean minimal value of testosterone (Cnadir)", "setting": "testosterone; 32 mg", "value": 0.9, "unit": "ng/mL"}, {"measurement": "Mean time-point (tnadir) to Cnadir of testosterone", "setting": "testosterone; 32 mg", "value": 1.3, "unit": "days"}, {"measurement": "Lowest mean testosterone level", "setting": "testosterone; 32 mg, Day 1, SD 0.5", "value": 0.9, "unit": "ng/mL"}, {"measurement": "Mean testosterone level on Day 42", "setting": "testosterone; 32 mg, Day 42 (5.2 at baseline)", "value": 5.3, "unit": "ng/mL"}, {"measurement": "Mean time for first return of testosterone to baseline interval after the first administration", "setting": "testosterone; 32 mg, SD=5.2", "value": 9.1, "unit": "days"}, {"measurement": "Mean area of testosterone concentrations below 0.5 ng/mL", "setting": "testosterone; 32 mg, range 0.0-0.1", "value": 0.0, "unit": "ng·days/mL"}, {"measurement": "Number of patients with testosterone below the castration level 0.5 ng/mL at one or more time-points", "setting": "testosterone; 32 mg", "value": 3, "unit": "patients"}, {"measurement": "Percentage of patients with testosterone below the castration level 0.5 ng/mL at one or more time-points", "setting": "testosterone; 32 mg", "value": 25, "unit": "%"}, {"measurement": "Greatest change from baseline in mean testosterone", "setting": "testosterone; 64 mg", "value": -4.7, "unit": "ng/mL"}, {"measurement": "Mean minimal value of testosterone (Cnadir)", "setting": "testosterone; 64 mg", "value": 0.4, "unit": "ng/mL"}, {"measurement": "Mean time-point (tnadir) to Cnadir of testosterone", "setting": "testosterone; 64 mg", "value": 8.8, "unit": "days"}, {"measurement": "Lowest mean testosterone level", "setting": "testosterone; 64 mg, Day 1, SD 0.2", "value": 0.4, "unit": "ng/mL"}, {"measurement": "Mean testosterone level on Day 42", "setting": "testosterone; 64 mg, Day 42 (5.2 at baseline)", "value": 3.0, "unit": "ng/mL"}, {"measurement": "Patients still below testosterone 0.5 ng/mL on Day 42", "setting": "testosterone; 64 mg, Day 42, of the 8 patients suppressed", "value": "Five"}, {"measurement": "Mean area of testosterone concentrations below 0.5 ng/mL", "setting": "testosterone; 64 mg, range 0.0-15.2", "value": 4.4, "unit": "ng·days/mL"}, {"measurement": "Number of patients with testosterone below the castration level 0.5 ng/mL at one or more time-points", "setting": "testosterone; 64 mg", "value": 9, "unit": "patients"}, {"measurement": "Percentage of patients with testosterone below the castration level 0.5 ng/mL at one or more time-points", "setting": "testosterone; 64 mg", "value": 69, "unit": "%"}, {"measurement": "Greatest change from baseline in mean testosterone", "setting": "testosterone; 16+16 mg", "value": -4.0, "unit": "ng/mL"}, {"measurement": "Lowest mean testosterone level", "setting": "testosterone; 16+16 mg, Day 1, SD 0.5", "value": 1.4, "unit": "ng/mL"}, {"measurement": "Mean testosterone level on Day 42", "setting": "testosterone; 16+16 mg, Day 42 (5.5 at baseline)", "value": 4.5, "unit": "ng/mL"}, {"measurement": "Mean time for first return of testosterone to baseline interval after the first administration", "setting": "testosterone; 16+16 mg, SD=2.8", "value": 6.1, "unit": "days"}, {"measurement": "Mean time to second return of testosterone to baseline interval (after the second administration)", "setting": "testosterone; 16+16 mg, SD=33.9", "value": 19.5, "unit": "days"}, {"measurement": "Mean minimal value of testosterone (Cnadir)", "setting": "testosterone; [3]", "value": 1.4, "unit": "ng/mL"}, {"measurement": "Mean time-point (tnadir) to Cnadir of testosterone", "setting": "testosterone; [3]", "value": 1.1, "unit": "days"}, {"measurement": "Mean minimal value of testosterone (Cnadir)", "setting": "testosterone; [4]", "value": 2.0, "unit": "ng/mL"}, {"measurement": "Mean time-point (tnadir) to Cnadir of testosterone", "setting": "testosterone; [4]", "value": 4.0, "unit": "days"}, {"measurement": "Mean area of testosterone concentrations below 0.5 ng/mL", "setting": "testosterone; 16+16 mg, range 0.0-0.0", "value": 0.0, "unit": "ng·days/mL"}, {"measurement": "Number of patients with testosterone below the castration level 0.5 ng/mL at one or more time-points", "setting": "testosterone; 16+16 mg", "value": 2, "unit": "patients"}, {"measurement": "Percentage of patients with testosterone below the castration level 0.5 ng/mL at one or more time-points", "setting": "testosterone; 16+16 mg", "value": 15, "unit": "%"}, {"measurement": "Greatest change from baseline in mean testosterone", "setting": "testosterone; 32+32 mg", "value": -4.1, "unit": "ng/mL"}, {"measurement": "Lowest mean testosterone level", "setting": "testosterone; 32+32 mg, Day 17 (after second administration), SD 0.3", "value": 0.4, "unit": "ng/mL"}, {"measurement": "Subjects that had not regained testosterone levels >0.5 ng/mL at Day 42", "setting": "testosterone; 32+32 mg, Day 42", "value": "Three"}, {"measurement": "Mean testosterone level on Day 42", "setting": "testosterone; 32+32 mg, Day 42 (4.5 at baseline)", "value": 2.7, "unit": "ng/mL"}, {"measurement": "Mean time for first return of testosterone to baseline interval after the first administration", "setting": "testosterone; 32+32 mg, SD=2.6", "value": 9.1, "unit": "days"}, {"measurement": "Mean time to second return of testosterone to baseline interval (after the second administration)", "setting": "testosterone; 32+32 mg, SD=83.5", "value": 64.2, "unit": "days"}, {"measurement": "Mean minimal value of testosterone (Cnadir)", "setting": "testosterone; [5]", "value": 0.6, "unit": "ng/mL"}, {"measurement": "Mean time-point (tnadir) to Cnadir of testosterone", "setting": "testosterone; [5]", "value": 3.2, "unit": "days"}, {"measurement": "Mean minimal value of testosterone (Cnadir)", "setting": "testosterone; [6]", "value": 0.4, "unit": "ng/mL"}, {"measurement": "Mean time-point (tnadir) to Cnadir of testosterone", "setting": "testosterone; [6]", "value": 4.3, "unit": "days"}, {"measurement": "Mean area of testosterone concentrations below 0.5 ng/mL", "setting": "testosterone; 32+32 mg, range 0.0-15.3", "value": 2.8, "unit": "ng·days/mL"}, {"measurement": "Number of patients with testosterone below the castration level 0.5 ng/mL at one or more time-points", "setting": "testosterone; 32+32 mg", "value": 9, "unit": "patients"}, {"measurement": "Percentage of patients with testosterone below the castration level 0.5 ng/mL at one or more time-points", "setting": "testosterone; 32+32 mg", "value": 75, "unit": "%"}, {"measurement": "Number of patients castrated (testosterone below 0.5 ng/mL), for generally 2-4 days", "setting": "testosterone; [7]", "value": 8, "unit": "patients"}, {"measurement": "Percentage of patients castrated (testosterone below 0.5 ng/mL), for generally 2-4 days", "setting": "testosterone; [7]", "value": 33, "unit": "%"}, {"measurement": "Larger area below and longer time to return to the testosterone baseline interval", "setting": "testosterone; groups given a total of 64 mg compared to the total dose 32 mg", "value": "more than 2 fold"}, {"measurement": "Change of IIEF scores", "setting": "men with BPH [1]", "value": "mild decrease"}, {"measurement": "Mean post-void residual volume", "setting": "men with BPH [2]; Day 14, apparent dose dependent way", "value": "decreased"}, {"measurement": "Mean post-void residual volume versus baseline", "setting": "men with BPH [2]; Day 42", "value": "lower than the baseline value"}, {"measurement": "Number of patients in whom post-void residual volume had decreased compared to baseline", "setting": "men with BPH [2]; Day 42", "value": 33, "unit": "patients"}, {"measurement": "Number of patients in whom post-void residual volume increased compared to baseline", "setting": "men with BPH [2]; Day 42", "value": 17, "unit": "patients"}]}
